Data on four molecules can be found in ChEMBL document CHEMBL1136900, “Discovery of aminoheterocycles as a novel beta-secretase inhibitor class: pH dependence on binding activity part 1” (Bioorg Med Chem Lett, 2009).

Each structure is given as a SMILES string.

Series [1] is described as follows: Dissociation constant, pKa of the compound. The format is physicochemical.
The nature of series [2]: Ratio of drug level in brain to plasma in mouse at 20 mg/kg, iv after 30 mins. The settings on record: brain and plasma, read-out: BPR. The format is ADME, organism-based. Set-up: dose 20 mg/kg, route intravenous.
A short description of series [3]: Drug level in mouse brain at 20 mg/kg, iv after 30 mins. Format: ADME, organism-based. More on the design: dose 20 mg/kg, route intravenous. Particulars: read-out: Drug uptake.

Consider `COc1ccc(C(Cc2cc([N+](=O)[O-])ccc2OC)c2cn(C)c(N)n2)cc1` (stereo not given), for which the pKa in series [1] was found to be 8.3.
On the same count and under the same terms, in the case of `COc1ccc(C(Cc2cc([N+](=O)[O-])ccc2OC)c2csc(N)n2)cc1` (stereo not given) it was 5.5; in that of `COc1ccc(C(Cc2cc([N+](=O)[O-])ccc2OC)c2c[nH]c(N)n2)cc1` (stereo not given), 8.1.
Consider `Nc1nc(C2(c3ccc(Cl)cc3)CCCC2)cs1`, for which, in series [2], the Kp at 0.5 h is 3.9. The concentration at 0.5 h in series [3] is 15 µM.

What is called pKa is the negative logarithm of the acid dissociation constant.
